# In patent publication US11137400B2, “Methods for predicting and determining responsiveness to activators of JNK kinase” (UNIVERSITY OF PITTSBURGH-OF THE COMMONWEALTH SYSTEM OF …, priority 2017, dated 2021):
# Entries after “also recorded” stand apart in the source; their conditions may differ. Where a SMILES comes first, the peptide text is derived from it. The star is where a group is joined. Cbz = O=C(OCc1ccccc1)*
# Columns and labels:
# VCAM-1 = test: TNFα-induced VCAM-1 protein expression in KM101 cells, Western blot; format: cell-based, human; settings: for TNFα-induced VCAM-1 protein expression: KM101 cells expressing (WT) hXBP1s
# Protocol: (§1) Total cell lysates were prepared with RIPA buffer containing protease inhibitor cocktail and phosphatase inhibitor cocktails I/II (Sigma-Aldrich). After centrifugation, total cell lysates then were separated by 10% sodium dodecyl sulfate polyacrylamide gel electrophoresis and analyzed by immunoblot analysis as described previously. Signals were detected with ECL reagents (GE Healthcare Life Sciences). Semi-quantification of data was performed using Image J. For immunoprecipitation assay, Cells were washed with ice-cold PBS and lysed with lysis buffer (50 mM Tris-HCl, pH 7.5; 150 mM NaCl, 0.1% (wt/vol) Nondiet P40, 1 mM Ethylenediaminetetraacetic acid (EDTA); […]; protease inhibitor cocktail and phosphatase inhibitor cocktails I/II (Sigma-Aldrich). After overnight incubation with Anti-HA-agarose beads (Roche) or anti-hXBP1s antibody at 4° C. on a rotator, following by addition of Protein G Agarose to the reaction containing anti-hXBP1s antibody for 2 h at 4° C. Immunoprecipitates were washed three times with cold lysis buffer and boiled for 5 min in 2× Laemmli buffer for elution of immunoprecipitated HA-hXBP1s or Flag-hXBP1s complex. Samples were resolved in SDS-PAGE (Bio-Rad) and immunoblotted with corresponding antibody.
# 5-TGM cells = test: Adhesion of 5-TGM cells to TNFα-treated KM101 cells; format: cell-based, mouse
# Protocol: Human kidney […], human BM stromal cell lines KM101 cells, mouse MM cell line 5-TGM1, human MM cell lines ANBL-6 and MM1.S were cultured as described. Mouse macrophage cell line RAW264.7 were cultured in DMEM supplemented with 10% FBS. Isolation of primary hBMSCs was performed as described. These studies were approved by the University of Pittsburgh institutional review board and by the VA Pittsburgh Healthcare System institutional animal care and use committee. MM cell growth assay, cell adhesion assays, OCL formation assay were performed as described (Xu et al., Blood, 119:4205-4214 (2012)).
# IL-6 = test: TNFα-induced IL-6 production in KM101 cells, ELISA; format: cell-based, human
# Protocol: To determine hIL-6 secretion by BMSCs, supernatants from cell cultures were collected and analyzed with hIL-6 ELISA read-set go kits (eBioscience) according to the manufacturer's instructions, the mice's serum concentration of IgG2b, RANKL, IL-6 and CTX-I were measured with their respectively ELISA kit (Quidel, Roche, Roche and MyBioSource).
# hXBP1s [1] = test: ER stress time course in HEK293T cells, Western blot of hXBP1s; format: cell-based, human
# Protocol: (§2) hXBP1s plays an essential role in regulating BMSC support of MM cell growth. […] To test this hypothesis, the time-dependent protein expression patterns of hXBP1s and phosphorylated JNKs (p-JNKs) was determined in cells that were challenged with either a persistent or transient ER stress, induced by either thapsigargin (Thg) or dithiothrietol (DTT), respectively. […] The protein level of hXBP1s started to decline at 6-hrs, and the reduction continued till 12-hr, the end of Thg treatment. In contrast, Thg induced the phosphorylation of JNKs from 6 to 12-hrs of Thg treatment. This activation of JNKs coincided with the decrease in hXBP1s protein levels within the same time frame of Thg treatment (FIG. 1A).
# DTT is a reducing agent that disrupts oxidative protein folding in the ER. Since the effects of DTT are rapidly reversible, and DTT can be readily removed by washing, it was used to mimic intermittent ER stress on cells. HEK293T cells were treated with DTT for 30 minutes, then DTT was washed away, and the cells were harvested at various time points after DTT removal. […] In addition, the cells recovered and further increased hXBP is protein expression at 2- and 5-hr post DTT removal. This process coincided with a drastic reduction in JNKs' phosphorylation (FIG. 1B).
# as §1
# FLAG-hXBP1s [2] = test: Western blot of FLAG-hXBP1s in HEK293T cells co-transfected with MYC-β-TrCP and MKK7-JNKs; format: cell-based, human; settings: pretreatment of HEK293T cells
# Description: Since JNKs repress hXBP1s protein expression, it was hypothesized that JNKs promote its β-TrCP binding and consequent degradation via the UPS-26S proteasome machinery. […] To determine the functional consequence of JNKs' potentiation of the physical interactions between MYC-β-TrCP and HA-hXBP1s. FLAG-XBP1s was overexpressed with a small/moderate amount of MYC-β-TrCP either in the presence or absence of MKK7-JNKs. […] Further, JNKs and MYC-β-TrCP's inhibition of FLAG-hXBP1s was abolished by pretreatment of cells with MG 132 (FIG. 2G). Consistent with the latter observation. […] Taking these observations together, it was concluded that JNKs promote the physical interactions between hXBP1s and D-TrCP, leading to the ubiquitination and consequent protein degradation of hXBP1s that results in a decrease in the steady-state levels of hXBP1s.
# (§3) Total cell lysates were prepared with RIPA buffer containing protease inhibitor cocktail and phosphatase inhibitor cocktails I/II (Sigma-Aldrich). After centrifugation, total cell lysates then were separated by 10% sodium dodecyl sulfate polyacrylamide gel electrophoresis and analyzed by immunoblot analysis as described previously. Signals were detected with ECL reagents (GE Healthcare Life Sciences). […]
# FLAG-hXBP1s [3] = test: Western blot of FLAG-hXBP1s (WT or S288A) in stably overexpressing KM101 cells; format: cell-based, human; settings: for effect of pretreatment on anisomycin-induced repression of FLAG-hXBP1s protein level: then stimulated with anisomycin; for effect on steady-state protein level of hXBP1s S288A mutant: S288A mutant expressing KM101 cells
# Protocol: as §1
# hXBP1s [4] = test: Western blot of steady-state hXBP1s protein (endogenous and overexpressed) in HEK293T and KM101 cells; format: cell-based, human
# Protocol: as §1
# hXbp1s mRNA = test: Real-time PCR of hXbp1s mRNA in FLAG-hXBP1s-overexpressing KM101 cells; format: cell-based, human
# Protocol: Real-time PCR was performed as described previously. B-Actin was used as an internal control.
# [5] = tested on: HA-hXBP1s / MYC-β-TrCP binding; test: Co-immunoprecipitation of HA-hXBP1s with MYC-β-TrCP in HEK293T cells; format: cell-based, human; settings: 10 nM JNKi for 4 hrs (FIG. 2F)
# Protocol: as §1
# p-JNKs = test: ER stress time course in HEK293T cells, Western blot of phosphorylated JNKs; format: cell-based, human; settings: 30-minute treatment
# Protocol: as §2
# DTT is a reducing agent that disrupts oxidative protein folding in the ER. Since the effects of DTT are rapidly reversible, and DTT can be readily removed by washing, it was used to mimic intermittent ER stress on cells. […]
# as §3
smiles,measurement,setting,value
O=S(=O)(N=Cc1c(O)ccc2ccccc12)c1cccs1 [STF-083010],TNFα-induced VCAM-1 protein expression,VCAM-1,repressed
same,JNKi's promotion of TNFα-induced stromal induction of VCAM-1,"VCAM-1; KM101 cells, with JNKi",compromised
same,TNFα-induced stromal support of adhesion of 5-TGM cells,5-TGM cells,repressed
same,JNKi's promotion of stromal support to 5-TGM cells' adhesion,5-TGM cells; with JNKi,compromised
same,TNFα-induced stromal production of IL-6,IL-6,repressed
same,JNKi's promotion of stromal production of IL-6,IL-6; with JNKi,compromised
"C/C=C(/C)C(=O)O[C@H]1C(C)=C2[C@H]([C@@H]1OC(=O)CCCCCCC)[C@@](C)(OC(C)=O)C[C@H](OC(=O)CCC)[C@@]1(O)[C@H]2OC(=O)[C@@]1(C)O [Thg, thapsigargin]",time at which endogenous hXBP1s peaked,hXBP1s [1],4 h
same,time at which up-regulation of endogenous hXBP1s was first detected,hXBP1s [1],2 h
same,time at which hXBP1s protein level started to decline,hXBP1s [1]; reduction continued till 12-hr,6 h
same,protein expression of endogenous hXBP1s during persistent ER stress,hXBP1s [1]; treatment up to 12-hr,time-dependent up-regulation
CC(C)C[C@@H](C=O)NC(=O)[C@H](CC(C)C)NC(=O)[C@H](CC(C)C)NC(=O)OCc1ccccc1 [MG132] (Cbz-Leu-Leu-Leu-aldehyde),JNKs and MYC-β-TrCP's inhibition of FLAG-hXBP1s,FLAG-hXBP1s [2],abolished
same,discrepancy in protein expression of S288A mutant and WT hXBP1s,FLAG-hXBP1s [3]; KM101 cells,abolished
same,effect of pretreatment on anisomycin-induced repression of FLAG-hXBP1s protein level,FLAG-hXBP1s [3]; KM101 cells,completely blocked
same,steady-state level of both endogenous and overexpressed hXBP1s,hXBP1s [4],promptly and greatly elevated
COc1ccc(C[C@H]2NC[C@H](O)[C@H]2OC(C)=O)cc1 [anisomycin],mRNA expression of hXbp1s,hXbp1s mRNA,no effect
same,TNFα-induced VCAM-1 protein expression,VCAM-1; listed as ANS,dose-dependently repressed; also recorded: dose-dependently blocked
same,inhibitory effect on TNFα-induced VCAM-1 protein expression in S288A mutant cells,VCAM-1; S288A mutant-overexpressing KM101 cells,largely abolished
same,steady-state protein level of overexpressed (WT) FLAG-hXBP1s,FLAG-hXBP1s [3]; KM101 cells,drastically decreased; also recorded: greatly reduced
same,effect on steady-state protein level of hXBP1s S288A mutant,FLAG-hXBP1s [3],completely lost its inhibitory effect
CCOc1nc(NC(=O)Cc2cc(OC)ccc2OC)cc(N)c1C#N [JNKi VIII],mRNA expression of hXbp1s,hXbp1s mRNA,no effect
same,TNFα-induced VCAM-1 protein expression,VCAM-1,potentiated
same,ANS inhibition of TNFα-induced VCAM-1 expression in presence of the substance,"VCAM-1; KM101 cells, with ANS",compromised
same,basal level binding of HA-hXBP1s with MYC-β-TrCP,[5],abolished
same,TNFα-induced stromal support of adhesion of 5-TGM cells,5-TGM cells,potentiated
same,steady-state protein level of overexpressed (WT) FLAG-hXBP1s,FLAG-hXBP1s [3]; KM101 cells,dose-dependent up-regulation
same,effect of pretreatment on anisomycin-induced repression of FLAG-hXBP1s protein level,FLAG-hXBP1s [3]; KM101 cells,largely prevented
same,steady-state protein level of overexpressed (WT) FLAG-hXBP1s,"FLAG-hXBP1s [3]; KM101 cells, listed as JNKi",dose-dependently increased
same,effect on steady-state protein level of hXBP1s S288A mutant,FLAG-hXBP1s [3],completely abolished
same,TNFα-induced stromal production of IL-6,IL-6,potentiated
"O[C@H](CS)[C@H](O)CS (racemic) [DTT, dithiothreitol]",phosphorylation of JNKs,p-JNKs,strongly induced
same,basal hXBP1s protein expression,hXBP1s [1]; 30-minute treatment,quickly diminished
